Reference: US20170334899A1, “AMINO-SUBSTITUTED ISOTHIAZOLES” (Bayer Pharma Aktiengesellschaft, priority 2014, published 2017)

What was measured:
[1] = tested on: human cervical tumor cell line HeLa (ATCC CCL-2); test: SAC-Formation - Nocodazole-Induced Assay; format: cell-based; details: Homo sapiens, HeLa, 24 h, HeLa cells, nocodazole 0.1 μg/ml together with test compound, decrease of mitotic cells (phospho-histone H3 Ser10)
How it was run: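 HeLa cells, plated overnight, were treated 24 h at 37 °C with nocodazole (0.1 μg/ml final) plus test compound (0.005–20 μM, 0.5% DMSO) added at the same time. After fixation, anti-phospho-histone H3 Ser10 and Hoechst staining gave the mitotic cell fraction by imaging. Values came from four-parameter Hill fits.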

[2] = tested on: human cervical tumor cell line HeLa (ATCC CCL-2); test: SAC-Formation - Paclitaxel-Induced Assay; format: cell-based; details: Homo sapiens, HeLa, 24 h, HeLa cells, paclitaxel 0.05 μM, test range 0.005 μM-20 μM, read-out: IC50 [mol/l] SAC-Formation - Paclitaxel-Induced Assay
How it was run: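 HeLa cells incubated overnight at 37° C, then given paclitaxel (0.05 μM final) plus test compound (0.005–20 μM, 0.5% DMSO) together for 24 h at 37° C. Fixed cells stained for phospho-histone H3 Ser10 (mitotic cells) and Hoechst 33342 (cell count); imaging-derived mitotic index fitted by four-parameter Hill equation.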

Compound | IC50 [1] [nM] | IC50 [2] [nM]
Cc1nsc(Nc2cnc3ccccc3n2)c1C(=O)Nc1ccc(OC2CCN(CC(F)(F)F)CC2)nc1 [Example 21, 3-Methyl-5-(quinoxalin-2-ylamino)-N-(6-{[1-(2,2,2-trifluoroethyl)piperidin-4-yl]oxy}-pyridin-3-yl)-1,2-thiazole-4-carboxamide] | 61 | 150
CC(=O)N1CCC(Oc2ccc(NC(=O)c3c(C)nsc3Nc3cnc4ccccc4n3)cn2)CC1 [Example 22, N-{6-[(1-acetylpiperidin-4-yl)oxy]pyridin-3-yl}-3-methyl-5-(quinoxalin-2-ylamino)-1,2-thiazole-4-carboxamide] | 580 | 2100
Cc1nsc(Nc2cc(C#N)ccn2)c1C(=O)Nc1ccc(OC2CCN(C(=O)OC(C)(C)C)CC2)nc1 [Example 23, tert-Butyl 4-({5-[({5-[(4-cyanopyridin-2-yl)amino]-3-methyl-1,2-thiazol-4-yl}-carbonyl)amino]pyridin-2-yl}oxy)piperidine-1-carboxylate] | 49 | 32
Cc1nsc(Nc2cc(C#N)ccn2)c1C(=O)Nc1ccc(OC2CCNCC2)nc1 [Example 24, 5-[(4-Cyanopyridin-2-yl)amino]-3-methyl-N-[6-(piperidin-4-yloxy)pyridin-3-yl]-1,2-thiazole-4-carboxamide] | 20000 | 20000
Cc1nsc(Nc2cc(C#N)ccn2)c1C(=O)Nc1ccc(OC2CCN(CC(F)(F)F)CC2)nc1 [Example 25, 5-[(4-Cyanopyridin-2-yl)amino]-3-methyl-N-(6-{[1-(2,2,2-trifluoroethyl)piperidin-4-yl]oxy}pyridin-3-yl)-1,2-thiazole-4-carboxamide] | 16 | 66
CCN1CCC(Oc2ccc(NC(=O)c3c(C)nsc3Nc3cc(C#N)ccn3)cn2)CC1 [Example 26, 5-[(4-Cyanopyridin-2-yl)amino]-N-{6-[(1-ethylpiperidin-4-yl)oxy]pyridin-3-yl}-3-methyl-1,2-thiazole-4-carboxamide] | 2400 | 20000
Cc1nsc(Nc2ccc(C#N)cn2)c1C(=O)Nc1ccc(OC2CCN(C(=O)OC(C)(C)C)CC2)nc1 [Example 27, tert-Butyl 4-({5-[({5-[(5-cyanopyridin-2-yl)amino]-3-methyl-1,2-thiazol-4-yl}-carbonyl)amino]pyridin-2-yl}oxy)piperidine-1-carboxylate] | 150 | 130
Cc1nsc(Nc2cnc3ccccc3n2)c1C(=O)Nc1ccc(N2CCN(C(=O)OC(C)(C)C)CC2)nc1 [Example 248, tert-butyl 4-[5-({[3-methyl-5-(quinoxalin-2-ylamino)-1,2-thiazol-4-yl]carbonyl}amino)pyridin-2-yl]piperazine-1-carboxylate] | 730 | 940
Cc1nsc(Nc2cnc3ccccc3n2)c1C(=O)Nc1cccc(C(=O)NC2CC2)c1 [Example 249, N-[3-(cyclopropylcarbamoyl)phenyl]-3-methyl-5-(quinoxalin-2-ylamino)-1,2-thiazole-4-carboxamide] | 960 | 1100
Cc1nsc(Nc2ccc(C#N)cn2)c1C(=O)Nc1cccc(C(=O)NC2CC2)c1 [Example 250, 5-[(5-cyanopyridin-2-yl)amino]-N-[3-(cyclopropylcarbamoyl)phenyl]-3-methyl-1,2-thiazole-4-carboxamide] | 790 | 4700
CCNC(=O)c1cccc(NC(=O)c2c(C)nsc2Nc2cnc3ccccc3n2)c1 [Example 251, N-[3-(ethylcarbamoyl)phenyl]-3-methyl-5-(quinoxalin-2-ylamino)-1,2-thiazole-4-carboxamide] | 1500 | 3000
Cc1nsc(Nc2cnc(C(F)(F)F)cn2)c1C(=O)Nc1ccc(F)c(OCC2CCN(C(CF)CF)CC2)c1 [Example 312, N-(3-{[1-(1,3-difluoropropan-2-yl)piperidin-4-yl]methoxy}-4-fluorophenyl)-3-methyl-5-{[5-(trifluoromethyl)pyrazin-2-yl]amino}-1,2-thiazole-4-carboxamide] | 82 | –
